Measurements reported in ChEMBL document CHEMBL3351387, “Bioisosteric replacement of an acylureido moiety attached to an indolin-2-one scaffold with a malonamido or a 2/4-pyridinoylamido moiety produces a selectively potent Aurora-B inhibitor” (Eur J Med Chem, 2014).

Columns and labels:
[1] = Half life in rat plasma at 2 mg/kg, iv after 24 hrs by LC-ESI-MS/MS method; format: ADME, organism-based; parameters: dose 2 mg/kg, route intravenous
[2] = target: Cytochrome P450 2C19 (Homo sapiens, UniProt P33261); assay: Inhibition of CYP2C19 (unknown origin) using 3-Cyano-7-ethoxycoumarin substrate; format: ADME
[3] = system: Vero; assay: Cytotoxicity against african green monkey Vero cells; format: cell-based; details: chlorocebus sabaeus
[4] = Antitumor activity against human HuH7 cells xenografted in iv dosed SCID mouse assessed as inhibition of tumor growth at 5 mg/kg, iv qd for 14 days measured on day 9; details: Huh-7, iv
[5] = target: Cytochrome P450 3A4 (Homo sapiens, UniProt P08684); assay: Inhibition of CYP3A4 (unknown origin) using Vivid OOMR substrate; format: ADME
[6] = system: A549; assay: Anti-invasive activity against human A549 cells assessed as inhibition of cell invasion by transwell invasion assay
[7] = system: HepG2; assay: Cytotoxicity against human HepG2 cells by SRB assay; format: cell-based
[8] = system: A549; assay: Antimigratory activity against human A549 cells assessed as inhibition of cell migration after 8 to 16 hrs by scratch wound model assay
[9] = Clearance in rat at 2 mg/kg, iv after 24 hrs by LC-ESI-MS/MS method; format: ADME, organism-based; parameters: dose 2 mg/kg, route intravenous; details: in vivo
[10] = Antitumor activity against human HuH7 cells xenografted in po dosed SCID mouse assessed as inhibition of tumor growth at 2.5 mg/kg, iv qd measured on day 14; format: functional; details: Huh-7, 336 h
[11] = Plasma concentration rat at 2 mg/kg, iv after 24 hrs by LC-ESI-MS/MS method; format: ADME, organism-based; parameters: dose 2 mg/kg, route intravenous
[12] = target: Cytochrome P450 2C9 (Homo sapiens, UniProt P11712); assay: Inhibition of CYP2C9 (unknown origin) using Vivid OOMR substrate; format: ADME
[13] = Volume of distribution at steady state in rat at 2 mg/kg, iv after 24 hrs by LC-ESI-MS/MS method; format: ADME, organism-based; parameters: dose 2 mg/kg, route intravenous; details: in vivo, read-out: Vdss
[14] = system: Rattus norvegicus; assay: AUC (0 to 24 hrs) in rat plasma at 2 mg/kg, iv after 24 hrs by LC-ESI-MS/MS method; format: ADME, organism-based; parameters: time < 24 hr, dose 2 mg/kg, route intravenous; details: in vivo
[15] = Plasma concentration rat at 2 mg/kg, iv after 5 mins by LC-ESI-MS/MS method; format: ADME, organism-based; parameters: dose 2 mg/kg, route intravenous
[16] = system: A549; assay: Cytotoxicity against human A549 cells by SRB assay; format: cell-based
[17] = Antitumor activity against human HuH7 cells xenografted in po dosed SCID mouse assessed as inhibition of tumor growth at 2.5 mg/kg, iv qd for 14 days measured on day 9; format: functional; details: Huh-7

Sequence of Cytochrome P450 3A4 (P08684 whole entry): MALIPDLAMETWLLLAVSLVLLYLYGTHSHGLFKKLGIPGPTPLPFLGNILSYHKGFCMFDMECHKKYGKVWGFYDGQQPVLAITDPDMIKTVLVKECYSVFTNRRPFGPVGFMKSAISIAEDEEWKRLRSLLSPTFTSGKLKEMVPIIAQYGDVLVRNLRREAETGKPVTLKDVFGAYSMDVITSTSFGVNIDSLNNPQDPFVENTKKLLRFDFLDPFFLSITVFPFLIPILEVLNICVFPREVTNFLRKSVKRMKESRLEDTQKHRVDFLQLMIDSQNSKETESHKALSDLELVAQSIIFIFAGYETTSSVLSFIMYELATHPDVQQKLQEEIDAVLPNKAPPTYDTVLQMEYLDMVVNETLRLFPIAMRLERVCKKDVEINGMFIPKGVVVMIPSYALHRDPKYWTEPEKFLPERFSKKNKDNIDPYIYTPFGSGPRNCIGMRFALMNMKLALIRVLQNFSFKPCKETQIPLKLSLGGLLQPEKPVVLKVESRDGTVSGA
Sequence of Cytochrome P450 2C19 (P33261 whole entry): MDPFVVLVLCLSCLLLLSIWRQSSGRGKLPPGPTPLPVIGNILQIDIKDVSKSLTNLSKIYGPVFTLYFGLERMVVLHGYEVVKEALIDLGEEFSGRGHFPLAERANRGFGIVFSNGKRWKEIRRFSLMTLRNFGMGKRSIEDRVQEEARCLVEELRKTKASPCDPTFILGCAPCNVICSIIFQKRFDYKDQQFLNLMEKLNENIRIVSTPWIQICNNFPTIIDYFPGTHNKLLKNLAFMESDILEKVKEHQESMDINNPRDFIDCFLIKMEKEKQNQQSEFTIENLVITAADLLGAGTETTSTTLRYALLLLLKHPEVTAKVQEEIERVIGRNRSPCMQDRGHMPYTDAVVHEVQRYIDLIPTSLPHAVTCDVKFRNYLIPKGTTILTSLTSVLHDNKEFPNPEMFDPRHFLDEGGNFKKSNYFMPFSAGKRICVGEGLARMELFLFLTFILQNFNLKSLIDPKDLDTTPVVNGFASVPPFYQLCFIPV
Sequence of Cytochrome P450 2C9 (P11712 whole entry): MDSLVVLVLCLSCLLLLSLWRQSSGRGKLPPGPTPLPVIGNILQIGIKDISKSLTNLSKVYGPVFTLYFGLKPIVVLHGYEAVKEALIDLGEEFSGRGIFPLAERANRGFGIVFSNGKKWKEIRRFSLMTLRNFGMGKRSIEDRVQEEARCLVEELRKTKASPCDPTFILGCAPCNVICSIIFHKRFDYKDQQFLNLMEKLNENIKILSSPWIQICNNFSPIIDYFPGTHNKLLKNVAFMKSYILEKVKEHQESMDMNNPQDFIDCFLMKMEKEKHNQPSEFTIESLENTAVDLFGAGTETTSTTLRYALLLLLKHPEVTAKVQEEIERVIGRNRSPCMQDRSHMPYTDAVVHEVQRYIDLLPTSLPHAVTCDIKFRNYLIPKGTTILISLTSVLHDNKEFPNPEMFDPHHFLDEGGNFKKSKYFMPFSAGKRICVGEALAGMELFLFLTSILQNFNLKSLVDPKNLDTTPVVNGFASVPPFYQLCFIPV

O=C1Nc2cc(NC(=O)c3c[nH]cc(-c4ccccc4F)c3=O)ccc2/C1=C/c1ccc[nH]1
half-life [1]: 11.8 h | IC50 [2]: 3.5 µM | Activity [3]: Non-toxic | inhibition in vivo at 5 mg/kg [4]: 61% | IC50 [5]: > 10 µM | IC50 [6]: 3.2 µM | IC50 [7]: 0.6 µM | IC50 [8]: 4.1 µM | clearance [9]: 9.41 mL/min/kg | inhibition in vivo at 2.5 mg/kg [10]: 38% | concentration at 24 h [11]: 10 ng/mL | IC50 [12]: 0.04 µM | Vd [13]: 9.34 L/kg | AUC [14]: 3660 ng·h/mL | concentration at 5 min [15]: 4790 ng/mL | IC50 [16]: 0.5 µM | inhibition in vivo at 2.5 mg/kg [17]: 56%
